One series has as its system MOLM13. Put plainly: CellTiter-Blue cell viability, MOLM13. As to conditions: Homo sapiens, MOLM-13. Type of series: cell-based. An outline of the steps: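 Cells were seeded at 1×10^4/well, grown 24 h in FBS-supplemented medium, then exposed to compound (0.097656–50 μM) for 72 h at 37° C, 5% CO2. Viability was read by CellTiter-Blue fluorescence (560/590 nm) after 1–4 h reagent incubation, with IC50 derived by non-linear regression.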
On the technique in general: The colour change of resazurin is a common sign of viable cells or microbes.

Series [1] concerns healthy keratinocyte cells (HaCaT). Nature of the series: CellTiter-Blue cell viability, HaCaT. The format is cell-based. As to conditions: Homo sapiens, non-cancerous, 72 hours. Here is the method: (§1) The anti-cancer efficacy of exemplary compounds of the application were assessed in vitro against different cancer cell lines. Cell viability was examined following treatment at various concentrations of inhibitor (0.097656-50 μM) using a CellTiter-Blue® cell viability assay. 1×10^4 cells/well were plated in 96-well assay plates in culture medium. All cells were grown in DMEM, IMDM and RPMI-1640 supplemented with 10% fetal bovine serum (FBS). In some instances, FBS was removed for periods ranging from 16-24 hours, and re-introduced with test compound addition. After 24 hrs, test compounds and vehicle controls were added to appropriate wells such that the final volume was 100 μl in each well. The cells were cultured for the desired test exposure period (72 hours) at 37° C. and 5% CO2. The assay plates were removed from 3° C. incubator and 20 μl/well of CellTiter-Blue® Reagent was added. The plates were incubated using standard cell culture conditions for 1-4 hours. Afterwards, the plates were shaken for 10 seconds and florescence was recorded at 560/590 nm using a Cytation 3 spectrophotometer. IC50 values were determined using non-linear regression analysis with GraphPad Prism 6.0 (GraphPad Software Inc.).

For another series, the system named is LN-229. Nature of the series: Cell viability, glioblastoma LN-229. The format is cell-based. As to conditions: Homo sapiens, glioblastoma cell line. As to the method: as §1, with “Cell viability was examined following treatment at various concentrations of inhibitor (0.097656-50 μM) using a CellTiter-Blue® cell viability assay.” left out, “All cells were grown in DMEM, IMDM and RPMI-1640 supplemented with 10% fetal bovine serum (FBS).” left out

Another series relates to ATCC3034. Put plainly: Cell viability, medulloblastoma ATCC3034. Type of series: cell-based. As to conditions: medulloblastoma cell line. Here is the method: as §1, with “Inc.). […]” for “Inc.).”
Another series deals with PL-21. Put plainly: Cell viability, AML PL-21. Type of series: cell-based. As to conditions: Table 4. As to the method: as §1, with “Inc.). […]” for “Inc.).”
A short description of the next series: in vitro. As to conditions: male, mouse. As to the method:
The reaction mixture was constituted with 100 mM phosphate buffer, ultra-pure H2O, 5 mM MgCl2 solution, 10 mM NADPH solution and 1 mg/mL S9 fraction. This mixture was then pre-warmed at 37° C. for 5 minutes. […] Aliquots of 50 μL were taken from the reaction solution at 0, 15, 30, 45 and 60 minutes. The aliquoted reaction solutions were stopped by the addition of a mixture of cold methanol and IS (100 nM alprazolam, 200 nM imipramine, 200 nM labetalol and 2 μM ketoprofen). The samples were then centrifuged at 3220 g for 40 minutes. Afterwards, aliquots of 90 μL of the supernatant for each sample was mixed with 90 μL of ultra-pure water and subjected to liquid chromatography tandem mass spectrometry (LC-MS/MS) analysis.
Injection volume was 10 μL.

For a further series, the system named is bromodomains. Nature of the series: BROMOscan bromodomain screen (DiscoverX). Type of series: binding. As to conditions: 10 μM. Here is the method:
T7 phage strains displaying bromodomains were grown in parallel in 24-well blocks in an E. coli host derived from the BL21 strain. E. coli were grown to log-phase and infected with T7 phage from a frozen stock (multiplicity of infection=0.4) and incubated with shaking at 32° C. until lysis (90-150 minutes). The lysates were centrifuged (5,000×g) and filtered (0.2 μm) to remove cell debris. […] The liganded beads were blocked with excess biotin and washed with blocking buffer (SeaBlock (Pierce), 1% BSA, 0.05 Tween 20, 1 mM DTT) to remove unbound ligand and to reduce non-specific phage binding. […] Test compounds were prepared as 1000× stocks in 100% DMSO and subsequently diluted 1:25 in monoethylene glycol (MEG). The compounds were then diluted directly into the assays such that the final concentrations of DMSO and MEG were 0.1% and 2.4%, respectively. All reactions were performed in polypropylene 384-well plates in a final volume of 0.02 ml. […] The bromodomain concentration in the eluates was measured by qPCR.
I-1 test compound was tested at 10 μM, and results for primary screen binding interactions are reported as ‘% Ctrl,’ where lower numbers indicate stronger hits in the matrix. % Ctrl is calculated with the following formula:
test compound=I-1 negative control=DMSO (100% Ctrl) positive control=control compound (0% Ctrl)

For the next series, the target named is T1, UBA5 (Homo sapiens, UniProt Q9GZZ9).
T1 construct: Constructs of full length human UBA5 (1-404) were cloned into a pET28b(+) vector; His-SUMO (N, cleaved yes); made in house; host or cells: E. coli BL21 (DE3) RILP
Nature of the series: In vitro transthiolation assay (UFM1-UFC1 conjugate formation). As to conditions: 50 nM UBA5, 3.5 hours pre-incubation, 0 to 1 μM I-1. Type of series: biochemical. As to the method: UBA5 and test compounds were pre-incubated for a period of 8 hours at 37° C. prior to addition of other assay components. After this period, UFM1, UFC1 and ATP were introduced to initiate the reactions. Final concentrations in the reactions were 250 nM UBA5, 10 μM UFM1, 10 μM UFC1 and 100 μM ATP for total assay volumes of 20 μL, in buffer consisting of 50 mM 4-(2-hydroxyethyl)-1-piperazineethanesulfonic acid (HEPES),), 0.5 mM TCEP, 5 mM MgCl2, at pH 7.4. A final concentration of 10% (v/v) DMSO was present in all reactions. The reactions were allowed to proceed for 1 hour before stopping with 4× Laemmli buffer (Bio-Rad 1610747). Samples were then run on 4-20% non-reducing SDS-PAGE stain-free gels to separate protein conjugates. Gels were subsequently imaged using Stain-free imaging technology (Bio-Rad). Image Lab software was used to quantify the intensity of the UFM1-UFC1 conjugate bands to controls with no inhibitor present and reported as % inhibition values.
I-1 was evaluated as well using differing transthiolation assay conditions, with a reduction in UBA5 concentration to 50 nM and a pre-incubation period of 3.5 hours at 37° C. of UBA5 with I-1. This was followed by a 30 minute reaction time after UFM1, UFC1 and ATP addition. A final concentration of 5% (v/v) DMSO was used.

Series [2] is described as follows: Intrinsic clearance in mouse hepatocytes.
Procedure: A stock of 100 μM test compound was prepared by diluting the 10 mM I-1 test compound in DMSO with a solution of 50% acetonitrile and 50% water. In a 96-well non-coated plate, 198 μL of hepatocytes was pipetted, and the plate was placed in the incubator on an orbital shaker to allow the hepatocytes to warm for 10 minutes. To this solution 2 μL of the 100 μM I-1 was added to start the reaction, and the plate was placed on an orbital shaker. […] The reaction solution was then vortexed for 10 minutes and centrifuged at 4,000 rpm for 30 minutes at 4° C. Next, 400 μL of the supernatant was transferred to one new 96-well plate, centrifuged at 4,000 rpm for 30 minutes at 4° C., and 100 μL of the supernatant was transferred to a new 96-well plate ensuring the pellet was not disturbed. 100 μL of ultrapure water was added to all samples for analysis by LC-MS/MS.

Entries after “also recorded” stand apart in the source; their conditions may differ.

Usually IC50 stands for the concentration that inhibits the measured activity by half. Higher therefore signals lower potency. For orientation: half-life means the time needed for the level to fall by half in the phase considered. Read a high half-life as slow decline. What is called microsomal CLint is the capacity of the preparation to metabolise the compound, expressed as a volume cleared per time.

T1 sequence (Q9GZZ9 whole entry): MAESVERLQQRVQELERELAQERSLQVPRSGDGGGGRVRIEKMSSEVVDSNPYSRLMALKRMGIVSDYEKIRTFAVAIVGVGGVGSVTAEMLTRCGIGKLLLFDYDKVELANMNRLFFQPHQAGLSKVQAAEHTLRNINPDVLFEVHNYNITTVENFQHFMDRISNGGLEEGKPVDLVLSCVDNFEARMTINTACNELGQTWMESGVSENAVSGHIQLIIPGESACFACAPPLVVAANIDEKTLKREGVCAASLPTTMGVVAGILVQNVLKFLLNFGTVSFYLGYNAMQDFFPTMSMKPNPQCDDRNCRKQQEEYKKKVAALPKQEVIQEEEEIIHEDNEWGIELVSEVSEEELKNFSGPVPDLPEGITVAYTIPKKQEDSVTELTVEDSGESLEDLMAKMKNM

In the case of `O=S(=O)(c1c(F)c(F)c(F)c(F)c1F)N(Cc1ccc(F)cc1)C1CC1` [Compound I-1, N-cyclopropyl-2,3,4,5,6-pentafluoro-N-(4-fluorobenzyl)benzenesulfonamide], the IC50 is 1500 nM in the series with MOLM13 (AML cell line, 72 hours); 2500 nM in the series with MOLM13 (AML, Table 4); 12500 nM in series [1]; 3030 nM in the series on LN-229; 800 nM in the series on ATCC3034; 3500 nM with PL-21. The half-life at 2 μM in the series “in vitro” (s9) amounted to 232 h. The microsomal CLint at 2 μM in “in vitro” (s9) was 0.05 µL/min/mg. Besides, the “Remaining Percentage 0 min” value in the series “in vitro” (s9, 0 h, 2 μM) came to 100.00%. Moreover, the “competitive binding / inhibition of 32 bromodomain targets” value with bromodomains is given as “negligible competitive binding; also recorded: does not inhibit”. The UFM1-UFC1 conjugate formation entry on UBA5 is “no conjugate formation at sub-micromolar concentrations”. In series [2], this molecule came in with a half-life at 1 μM of 3.07 h.

Source of the values: US20200277268A1, “PENTAFLUOROPHENYL SULFONAMIDE COMPOUNDS, COMPOSITIONS AND USES THEREOF” (DALRIADA THERAPEUTICS INC., priority 2017, published 2020).
